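Assay format: 96-well plates, 48-hour exposure. GI50 = concentration required for 50% inhibition of growth.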 Activity calls are given as the source filed them. No stated cut-off is given here; in the data, active = GI50 up to about 1.1 µM and inactive = higher.
Key:
Assay in all cases: DTP human tumour cell line panel, 48 h
[1] = tested on: 786-0
[2] = tested on: A498
[3] = tested on: DU-145
[4] = tested on: EKVX
[5] = tested on: HCT-116
[6] = tested on: IGROV-1
[7] = tested on: K562
[8] = tested on: KM12
[9] = tested on: LOX IMVI
[10] = tested on: M14
[11] = tested on: MDA-MB-435
[12] = tested on: MOLT-4
[13] = tested on: NCI-H460
[14] = tested on: SK-MEL-5
[15] = tested on: SNB-75
[16] = tested on: T47D
[17] = tested on: U-251
[18] = tested on: UACC-257
[19] = tested on: Hs-578T
[20] = tested on: TK-10

SMILES | GI50 [1] | GI50 [2] | GI50 [3] | GI50 [4] | GI50 [5] | GI50 [6] | GI50 [7] | GI50 [8] | GI50 [9] | GI50 [10] | GI50 [11] | GI50 [12] | GI50 [13] | GI50 [14] | GI50 [15] | GI50 [16] | GI50 [17] | GI50 [18] | GI50 [19] | GI50 [20]
CCOC(=O)c1cn(-c2ccc([N+](=O)[O-])cc2)c(=S)n2c1nc1ccccc12 | 30.1 µM (inactive) | 20.6 µM (inactive) | 81.7 µM (inactive) | 53.7 µM (inactive) | 31.1 µM (inactive) | 54.1 µM (inactive) | 46.5 µM (inactive) | 30.1 µM (inactive) | 56.5 µM (inactive) | 61 µM (inactive) | 41.8 µM (inactive) | 28 µM (inactive) | 51.5 µM (inactive) | 21.9 µM (inactive) | > 100 µM (inactive) | 58.6 µM (inactive) | 36.2 µM (inactive) | 30.7 µM (inactive) |  | 
CC(=O)OCC1OC(n2c(C)c(/N=N/c3ccc(C)cc3)c(C)c(C#N)c2=S)C(OC(C)=O)C(OC(C)=O)C1OC(C)=O (stereo unspecified) | 27.4 µM (inactive) |  | > 100 µM (inactive) |  | > 100 µM (inactive) | > 100 µM (inactive) | > 100 µM (inactive) | > 100 µM (inactive) | > 100 µM (inactive) | 48.6 µM (inactive) | > 100 µM (inactive) | > 100 µM (inactive) | > 100 µM (inactive) | 43.2 µM (inactive) | 60.4 µM (inactive) | > 100 µM (inactive) | > 100 µM (inactive) | > 100 µM (inactive) | 23.5 µM (inactive) | > 100 µM (inactive)
CC(C)(C)OC(=O)NCCNCCNc1ccccc1 | > 100 µM (inactive) |  | 90.8 µM (inactive) | > 100 µM (inactive) | > 100 µM (inactive) | > 100 µM (inactive) | > 100 µM (inactive) | > 100 µM (inactive) | > 100 µM (inactive) | > 100 µM (inactive) | > 100 µM (inactive) | > 100 µM (inactive) | > 100 µM (inactive) | 62.1 µM (inactive) | 58.2 µM (inactive) | 85.5 µM (inactive) | > 100 µM (inactive) | > 100 µM (inactive) |  | > 100 µM (inactive)
O=C1Nc2ccccc2/C1=N/NC(=S)N1CCCCC1 | 0.301 µM (active) | 0.356 µM (active) | 1.91 µM (inactive) | 1.31 µM (inactive) | 0.216 µM (active) | 0.138 µM (active) |  | 0.0841 µM (active) | 0.418 µM (active) | 0.29 µM (active) | 1.36 µM (inactive) | 0.354 µM (active) | 0.0841 µM (active) | 0.0667 µM (active) | 1.52 µM (inactive) | 5.94 µM (inactive) | 0.678 µM (active) |  |  | 0.295 µM (active)
COc1cc2c(cc1C)NC(=O)/C2=C\c1ccncc1 | 5.35 µM (inactive) |  | 3.09 µM (inactive) | 6.7 µM (inactive) | 2.34 µM (inactive) | 2.43 µM (inactive) | 3.66 µM (inactive) | 3.48 µM (inactive) |  | 3.98 µM (inactive) | 4.14 µM (inactive) |  | 17.7 µM (inactive) | 2.73 µM (inactive) | 13.4 µM (inactive) | 3.81 µM (inactive) | 4.39 µM (inactive) | 5.19 µM (inactive) | 3.6 µM (inactive) | 5.86 µM (inactive)
O=C(O)CCC(NC(=O)c1ccc(Oc2nc3ccccc3nc2-c2ccccc2)cc1)C(=O)O (stereo unspecified) | > 100 µM (inactive) | > 100 µM (inactive) | > 100 µM (inactive) | > 100 µM (inactive) | > 100 µM (inactive) | > 100 µM (inactive) | > 100 µM (inactive) | > 100 µM (inactive) | > 100 µM (inactive) | > 100 µM (inactive) | > 100 µM (inactive) | > 100 µM (inactive) | > 100 µM (inactive) |  | > 100 µM (inactive) | > 100 µM (inactive) | > 100 µM (inactive) | > 100 µM (inactive) |  | > 100 µM (inactive)

Source: ChEMBL document CHEMBL1201862, “PubChem BioAssay data set” (2004)
